Article PMC11898654, “The Na^+-K^+-ATPase alpha subunit is an entry receptor for white spot syndrome virus” (mBio, 2025)
Structures can show the parent of a compound that is named as a salt.

What was measured:
WSSV [1] = experiment: Endocytic inhibitors injected into shrimp, WSSV entry and replication in hemocytes; assay type: in vivo, White spot syndrome virus; details: shrimp injected with inhibitor before WSSV; for effect on WSSV entry and replication in shrimp hemocytes: qPCR and flow cytometry, entry 4 h, replication 24 h post-infection
Experimental: Given that viruses enter host cells by exploiting various endocytic pathways, such as clathrin-mediated endocytosis, caveolin-mediated endocytosis, and macropinocytosis ([31]), we went on to examine which of these endocytic pathways is used by WSSV to enter hemocytes. […].
Fig. S5 WSSV entry into shrimp hemocytes through multiple endocytic pathways. (A-F) Identification of endocytic pathways triggered by WSSV. Shrimps were injected with either WSSV or PBS (negative control), and hemocytes were harvested 4 hours post-infection. Hemocytes were incubated with endocytic markers TFN-AF555, CTB-AF555, and DTN-AF568, and uptake rates were analyzed by flow cytometry. Panels (A-C) display representative flow cytometry images for the uptake of TFN-AF555, CTB-AF555, and DTN-AF568, respectively. Quantified uptake rates from three independent experiments are shown in panels (D-F). (G-J) Impact of endocytic inhibitors on WSSV entry. Shrimps were injected with the inhibitors CPZ, GEN, or AMR, and hemocytes were collected 2 hours later for cytotoxicity analysis using the CCK8 kit (G). FITC-labeled or unlabeled WSSV particles were subsequently injected, and hemocytes were harvested 4 hours post-infection for flow cytometry (H) and qPCR (J) to assess WSSV entry. Data from three independent flow cytometry assays are presented in panel (I). (K) Effect of endocytic inhibitors on WSSV replication. Shrimps were injected with WSSV particles following inhibitor treatment, and hemocytes were collected 24 hours post-infection for WSSV copy number quantification via qPCR. Statistical significance was determined using a two-tailed Student’s t-test. * P < 0.05, ** P < 0.01, and *** P < 0.001.

WSSV [2] = experiment: Endocytic inhibitor treatment, WSSV entry in PvATP1A-overexpressing PAC2 cells; assay type: cell-based, White spot syndrome virus; details: 5 µM inhibitor pre-treatment 30 min, WSSV MOI = 0.1 for 1 h, qPCR, compared with cells treated with CPZ
Experimental: Endocytic inhibitors, chlorpromazine hydrochloride (CPZ, Cat. No. HY-B0407A), genistein (GEN, Cat. No. HY-14596), and amiloride hydrochloride (AMR, Cat. No. HY-B0285A), were purchased from MedChemexpress. Zebrafish PAC2 fibroblast cells were transfected with either the PvATP1A expression plasmid (pEGFP-N1-PvATP1A) or the control plasmid pEGFP-N1. Forty-eight hours post-transfection, cells expressing pEGFP-PvATP1A were pre-treated with 5 µM of each endocytic inhibitor (CPZ, GEN, and AMR) or DMSO (as a control) for 30 min. Following pre-treatment, cells were infected with WSSV (MOI = 0.1) for 1 h. The cells were then washed thrice with PBS, and DNA was extracted for quantification of WSSV copy numbers using qPCR. Cytotoxicity of the endocytic inhibitors on PAC2 cells was assessed using the CCK8 kit (Beyotime, China, Cat. No. C0037), following the manufacturer’s instructions.

WSSV VP28 protein = WSSV VP28 protein (White spot syndrome virus, UniProt Q9ICB7); assay type: binding; details: SPR, different concentrations of the synthetic peptides
Experimental: SPR experiments were conducted using a Biacore T200 system (GE Healthcare, USA). […] Regeneration of the sensor chip was performed by injecting glycine (pH 3.0) for 30 s at a flow rate of 30 µL/min. The Biacore Insight Evaluation Software application was utilized to analyze the association and dissociation rates using a steady state affinity analysis, and the equilibrium dissociation constant (KD) was determined as the ratio of the dissociation rate to the association rate.

| Molecule | effect on WSSV entry and replication in shrimp hemocytes (WSSV [1]) | WSSV entry, viral copy numbers in PvATP1A-overexpressing cells (WSSV [2]) | change in response units (RU) of the VP28-coated chip (WSSV VP28 protein) | ranking among the endocytic inhibitors for virus entry (WSSV [1]) |
| --- | --- | --- | --- | --- |
| CN(C)CCCN1c2ccccc2Sc2ccc(Cl)cc21 [CPZ, chlorpromazine hydrochloride] | inhibited WSSV entry and replication | – | – | – |
| N=C(N)NC(=O)c1nc(Cl)c(N)nc1N [AMR, amiloride hydrochloride] | inhibited WSSV entry and replication | significantly decreased viral copy numbers | – | – |
| MVSKGEELFT [pEGFP] | – | – | no changes in the response units | – |
| O=c1c(-c2ccc(O)cc2)coc2cc(O)cc(O)c12 [GEN, genistein] | inhibited WSSV entry and replication | significantly decreased viral copy numbers | – | most potent inhibitors of virus entry |
